Measured values as given in patent publication US20240277798A1, “CYCLOSPORINE COMPOSITIONS AND METHODS OF USE” (Bacainn Biotherapeutics, Ltd., priority 2021, published 2024).

Tested on: human neutrophils
Assay: PMN transmigration assay (Salmonella typhimurium-infected T84 monolayer, HXA3/MRP2-driven neutrophil migration, MPO readout)
Type: cell-based
Conditions: dose of 100 nM, result in words
Description: PMN transmigration assay. T84 colorectal cancer cells were grown to confluence on the bottom side of 12 well polycarbonate membrane inserts of a 24 well Transwell® plate. The confluent growth of these epithelial cells results in physiologically-relevant apical (luminal) and basolateral surfaces in the transwells. […] The monolayer was then infected on the apical surface with Salmonella typhimurium for 2 hours to induce hepoxilin A3 (HXA3) efflux through the MRP2 membrane protein and into the apical chamber. […] Freshly isolated and prepared human neutrophils were then added to the basolateral side and allowed to transmigrate through the monolayer for 2 hours. The number of neutrophils migrated to the apical chamber (due to the HXA3 gradient) was then assayed by determination of myeloperoxidase activity (a neutrophil biomarker). Inhibition of transmigration is indicated by lower MPO activity in the apical chamber.

SMILES | inhibition of neutrophil migration
CC[C@@H]1NC(=O)[C@H]([C@H](O)[C@H](C)CCCCCCC(=O)O)N(C)C(=O)[C@H](C(C)C)N(C)C(=O)[C@H](CC(C)C)N(C)C(=O)[C@H](CC(C)C)N(C)C(=O)[C@@H](C)NC(=O)[C@H](C)NC(=O)[C@H](CC(C)C)N(C)C(=O)[C@H](C(C)C)NC(=O)[C@H](CC(C)C)N(C)C(=O)CN(C)C1=O [BT125] | exhibit inhibition
CC[C@@H]1NC(=O)[C@H]([C@H](O)[C@H](C)CCCCC(=O)O)N(C)C(=O)[C@H](C(C)C)N(C)C(=O)[C@H](CC(C)C)N(C)C(=O)[C@H](CC(C)C)N(C)C(=O)[C@@H](C)NC(=O)[C@H](C)NC(=O)[C@H](CC(C)C)N(C)C(=O)[C@H](C(C)C)NC(=O)[C@H](CC(C)C)N(C)C(=O)CN(C)C1=O [BT122] | exhibit inhibition
